PubChem BioAssay (NCI)
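Tested at 5 concentrations; 48 h exposure; 96-well plates; endpoints linearly interpolated, else capped at highest concentration. The concentration for full growth arrest is given as TGI.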

Tests used:
Test in all cases: NCI tumour cell line growth inhibition, 48 h
[1] = test system: CCRF-CEM leukemia
[2] = test system: UACC-257 melanoma
[3] = test system: MDA-MB-231 breast
[4] = test system: BT-549 breast
[5] = test system: HCT-15 colon
[6] = test system: OVCAR-3 ovarian
[7] = test system: DU-145 prostate
[8] = test system: MDA-N
[9] = test system: KM12 colon
[10] = test system: TK-10 renal
[11] = test system: MCF7 breast
[12] = test system: SNB-19 CNS
[13] = test system: RXF 393 renal
[14] = test system: OVCAR-4 ovarian
[15] = test system: HCC-2998 colon
[16] = test system: MOLT-4 leukemia
[17] = test system: SK-MEL-5 melanoma
[18] = test system: UO-31 renal
[19] = test system: MDA-MB-435
[20] = test system: LOX IMVI melanoma
[21] = test system: HT29 colon
[22] = test system: SK-MEL-2 melanoma
[23] = test system: SF-268 CNS
[24] = test system: ACHN renal
[25] = test system: K-562 leukemia
[26] = test system: OVCAR-8 ovarian
[27] = test system: SW-620 colon
[28] = test system: HCT-116 colon
[29] = test system: HS 578T breast
[30] = test system: HOP-92 NSCLC
[31] = test system: COLO 205 colon
[32] = test system: SK-OV-3 ovarian
[33] = test system: SNB-75 CNS
[34] = test system: UACC-62 melanoma
[35] = test system: A498 renal
[36] = test system: HOP-62 NSCLC
[37] = test system: NCI-H226 lung
[38] = test system: A549 NSCLC
[39] = test system: HL-60(TB) leukemia
[40] = test system: M14 melanoma
[41] = test system: NCI-H460 lung
[42] = test system: OVCAR-5 ovarian
[43] = test system: SF-539 CNS
[44] = test system: PC-3 prostate
[45] = test system: IGROV1 ovarian
[46] = test system: NCI/ADR-RES ovarian
[47] = test system: EKVX NSCLC
[48] = test system: NCI-H522 lung
[49] = test system: SF-295 CNS
[50] = test system: RPMI-8226 leukemia
[51] = test system: CAKI-1 renal
[52] = test system: NCI-H23 lung
[53] = test system: U251 CNS
[54] = test system: SR leukemia
[55] = test system: 786-0 renal
[56] = test system: SN12C renal
[57] = test system: SK-MEL-28 melanoma
[58] = test system: T-47D breast
[59] = test system: MALME-3M melanoma

## COC(=O)C(CCC1C=CN(S(=O)(=O)c2ccc(C)cc2)C1)N=Cc1ccccc1 (stereo unspecified)
[1]
  TGI: > 100 µM
[2]
  TGI: > 100 µM
[3]
  TGI: > 100 µM
[4]
  TGI: > 100 µM
[5]
  TGI: > 100 µM
[6]
  TGI: > 100 µM
[7]
  TGI: > 100 µM
[8]
  TGI: > 100 µM
[9]
  TGI: > 100 µM
[10]
  TGI: > 100 µM
[11]
  TGI: > 100 µM
[12]
  TGI: > 100 µM
[13]
  TGI: > 100 µM
[14]
  TGI: > 100 µM
[15]
  TGI: > 100 µM
[16]
  TGI: > 100 µM
[17]
  TGI: 53.9 µM
[18]
  TGI: > 100 µM
[19]
  TGI: > 100 µM
[20]
  TGI: > 100 µM
[21]
  TGI: > 100 µM
[22]
  TGI: 49.6 µM
[23]
  TGI: > 100 µM
[24]
  TGI: > 100 µM
[25]
  TGI: > 100 µM
[26]
  TGI: > 100 µM
[27]
  TGI: > 100 µM
[28]
  TGI: > 100 µM
[29]
  TGI: > 100 µM
[30]
  TGI: > 100 µM
[31]
  TGI: 41.1 µM
[32]
  TGI: > 100 µM
[33]
  TGI: > 100 µM
[34]
  TGI: > 100 µM
[35]
  TGI: > 100 µM
[36]
  TGI: > 100 µM
[37]
  TGI: > 100 µM
[38]
  TGI: > 100 µM
[39]
  TGI: 22.1 µM
[40]
  TGI: > 100 µM
[41]
  TGI: > 100 µM
[42]
  TGI: > 100 µM
[43]
  TGI: > 100 µM
[44]
  TGI: > 100 µM
[45]
  TGI: > 100 µM
[46]
  TGI: > 100 µM
[47]
  TGI: > 100 µM
[48]
  TGI: > 100 µM
[49]
  TGI: > 100 µM
[50]
  TGI: 82 µM
[51]
  TGI: > 100 µM
[52]
  TGI: 63 µM
[53]
  TGI: > 100 µM
[54]
  TGI: 61.1 µM
[55]
  TGI: > 100 µM
[56]
  TGI: > 100 µM
[57]
  TGI: > 100 µM
[58]
  TGI: > 100 µM

## O=C(CCN1CCCCC1)Nc1ccc2sc3ccccc3c(=O)c2n1
[1]
  TGI: 54 µM
[2]
  TGI: 46.3 µM
[3]
  TGI: 44.4 µM
[4]
  TGI: 37.2 µM
[5]
  TGI: 46.6 µM
[6]
  TGI: 33.7 µM
[7]
  TGI: 46.1 µM
[8]
  TGI: 28.9 µM
[9]
  TGI: 34 µM
[59]
  TGI: 43.6 µM
[10]
  TGI: 46.9 µM
[11]
  TGI: 57.5 µM
[12]
  TGI: 47.7 µM
[14]
  TGI: 41.9 µM
[15]
  TGI: 30 µM
[16]
  TGI: 18.8 µM
[17]
  TGI: 61.9 µM
[18]
  TGI: 22.1 µM
[19]
  TGI: 25.8 µM
[20]
  TGI: 24.8 µM
[21]
  TGI: > 100 µM
[23]
  TGI: 43.3 µM
[24]
  TGI: 52.7 µM
[25]
  TGI: 28.6 µM
[27]
  TGI: 33.2 µM
[28]
  TGI: 22.9 µM
[29]
  TGI: 41.5 µM
[30]
  TGI: 1.79 µM
[31]
  TGI: 24.5 µM
[32]
  TGI: 48.7 µM
[33]
  TGI: 23 µM
[34]
  TGI: 30.1 µM
[36]
  TGI: 29.8 µM
[38]
  TGI: 35.3 µM
[39]
  TGI: 19.2 µM
[40]
  TGI: 27.3 µM
[41]
  TGI: 42.1 µM
[42]
  TGI: 43 µM
[43]
  TGI: 31.6 µM
[44]
  TGI: 30.3 µM
[45]
  TGI: 31.3 µM
[46]
  TGI: 73.9 µM
[47]
  TGI: 84 µM
[48]
  TGI: 25.9 µM
[49]
  TGI: 45.7 µM
[50]
  TGI: 24.8 µM
[51]
  TGI: 33.6 µM
[53]
  TGI: 30.3 µM
[54]
  TGI: 39 µM
[55]
  TGI: 28.5 µM
[56]
  TGI: 52.4 µM
[57]
  TGI: 33.8 µM
[58]
  TGI: 93.6 µM
